Results reported in US20240109917A1 (ACTELION PHARMACEUTICALS LTD, priority 2020, published 2024).

Molecular target: His6-TEV-PDGFRβ (557-1016) (Homo sapiens (Human), UniProt P09619)
Assay: PDGFRβ HTRF Assay
Assay type: biochemical
Details: read-out: PDGFR HTRF IC50
Summary of the method: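 HTRF KinEASE-TK readout (665/620 nm ratio) of TK-biotin substrate phosphorylation by His-tagged PDGFRβ kinase domain. Enzyme and inhibitor preincubated 30 min, then ATP/substrate added for 3 h at room temperature before 60 min EDTA quench/detection.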

His6-TEV-PDGFRβ (557-1016), sequence (P09619 557-1016): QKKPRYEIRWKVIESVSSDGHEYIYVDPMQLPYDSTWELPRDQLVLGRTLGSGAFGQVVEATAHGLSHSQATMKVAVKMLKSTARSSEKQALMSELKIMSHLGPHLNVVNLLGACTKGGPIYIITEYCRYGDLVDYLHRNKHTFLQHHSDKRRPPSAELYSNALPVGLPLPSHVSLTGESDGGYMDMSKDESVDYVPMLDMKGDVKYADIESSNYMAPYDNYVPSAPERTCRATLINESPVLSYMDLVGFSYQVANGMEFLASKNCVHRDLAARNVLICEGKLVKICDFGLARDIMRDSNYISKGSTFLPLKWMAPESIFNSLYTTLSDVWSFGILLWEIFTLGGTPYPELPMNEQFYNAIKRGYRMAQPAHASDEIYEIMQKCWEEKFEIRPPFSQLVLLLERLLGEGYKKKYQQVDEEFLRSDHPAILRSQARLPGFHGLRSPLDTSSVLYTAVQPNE

Row | Structure (SMILES) | IC50 [nM]
1 | Cc1ncc(C(=O)NCCN2CCCC23CCC3)cc1NC(=O)c1cnn2cc(-c3cn(C)nc3C)sc12 [Example 213, N-(5-((2-(5-azaspiro[3.4]octan-5-yl)ethyl)carbamoyl)-2-methylpyridin-3-yl)-2-(1,3-dimethyl-1H-pyrazol-4-yl)pyrazolo[5,1-b]thiazole-7-carboxamide] | 0.3
2 | Cc1ncc(C(=O)NC2CN(C(C)(C)C)C2)cc1NC(=O)c1cnn2cc(-c3cnn(C)c3)sc12 [Example 237, N-(5-((1-(tert-butyl)azetidin-3-yl)carbamoyl)-2-methylpyridin-3-yl)-2-(1-methyl-1H-pyrazol-4-yl)pyrazolo[5,1-b]thiazole-7-carboxamide] | 1.4
3 | Cc1ncc(NC(=O)CN(C)C2CCOCC2)cc1NC(=O)c1cnn2cc(-c3cnn(C)c3)sc12 [Example 15, 2-(1-methyl-1H-pyrazol-4-yl)-N-(2-methyl-5-(2-(methyl(tetrahydro-2H-pyran-4-yl)amino)acetamido)pyridin-3-yl)pyrazolo[5,1-b]thiazole-7-carboxamide] | 0.5
4 | Cc1cc(C(=O)NCCN2[C@H](C)CCC[C@@H]2C)sc1NC(=O)c1cnn2cc(-c3cnn(C)c3)sc12 [Example 198, N-(5-((2-((2S,6R)-2,6-dimethylpiperidin-1-yl)ethyl)carbamoyl)-3-methylthiophen-2-yl)-2-(1-methyl-1H-pyrazol-4-yl)pyrazolo[5,1-b]thiazole-7-carboxamide] | 2
5 | Cc1ncc(NC(=O)CN2CCC3(COC3)C2)cc1NC(=O)c1cnn2cc(-c3cnn(C)c3)sc12 [Example 18, N-(5-(2-(2-oxa-6-azaspiro[3.4]octan-6-yl)acetamido)-2-methylpyridin-3-yl)-2-(1-methyl-1H-pyrazol-4-yl)pyrazolo[5,1-b]thiazole-7-carboxamide] | 0.6
6 | Cc1cc(C(=O)NCCN2CCC3(CCC3)CC2)sc1NC(=O)c1cnn2cc(-c3cnn(C)c3)sc12 [Example 203, N-(5-((2-(7-azaspiro[3.5]nonan-7-yl)ethyl)carbamoyl)-3-methylthiophen-2-yl)-2-(1-methyl-1H-pyrazol-4-yl)pyrazolo[5,1-b]thiazole-7-carboxamide] | 25
7 | COc1ncccc1-c1cn2ncc(C(=O)Nc3cc(C(=O)NCCN4CCCC4)cnc3C)c2s1 [Example 229, 2-(2-Methoxypyridin-3-yl)-N-(2-methyl-5-((2-(pyrrolidin-1-yl)ethyl)carbamoyl)pyridin-3-yl)pyrazolo[5,1-b]thiazole-7-carboxamide] | 0.2
8 | Cc1ncc(NC(=O)OCCN2CC3CCC2C3)cc1NC(=O)c1cnn2cc(-c3cnn(C)c3)sc12 (stereo not shown) [Example 250, 2-(2-azabicyclo[2.2.1]heptan-2-yl)ethyl (6-methyl-5-(2-(1-methyl-1H-pyrazol-4-yl)pyrazolo[5,1-b]thiazole-7-carboxamido)pyridin-3-yl)carbamate] | 1.4
9 | Cc1cc(C(=O)NCCN2CCC(CO)CC2)sc1NC(=O)c1cnn2cc(-c3cnn(C)c3)sc12 [Example 193, N-(5-((2-(4-(hydroxymethyl)piperidin-1-yl)ethyl)carbamoyl)-3-methylthiophen-2-yl)-2-(1-methyl-1H-pyrazol-4-yl)pyrazolo[5,1-b]thiazole-7-carboxamide] | 321
10 | Cc1ncc(NC(=O)OCCN2CCCC2(C)C)cc1NC(=O)c1cnn2cc(-c3cnn(C)c3)sc12 [Example 247, 2-(2,2-dimethylpyrrolidin-1-yl)ethyl (6-methyl-5-(2-(1-methyl-1H-pyrazol-4-yl)pyrazolo[5,1-b]thiazole-7-carboxamido)pyridin-3-yl)carbamate] | 0.6
11 | Cc1cc(C(=O)NCCN2CCCC(O)C2)sc1NC(=O)c1cnn2cc(-c3cnn(C)c3)sc12 (stereo not shown) [Example 200, N-(5-((2-(3-hydroxypiperidin-1-yl)ethyl)carbamoyl)-3-methylthiophen-2-yl)-2-(1-methyl-1H-pyrazol-4-yl)pyrazolo[5,1-b]thiazole-7-carboxamide] | 49
12 | Cc1cc(C(=O)NCC(C)(C)N2CCCC2)sc1NC(=O)c1cnn2cc(-c3cnn(C)c3)sc12 [Example 202, 2-(1-methyl-1H-pyrazol-4-yl)-N-(3-methyl-5-((2-methyl-2-(pyrrolidin-1-yl)propyl)carbamoyl)thiophen-2-yl)pyrazolo[5,1-b]thiazole-7-carboxamide] | 1070
13 | Cc1ncc(C(=O)NCCN2CCCC2)cc1NC(=O)c1cnn2cc(-c3c(C)nn(C)c3C)sc12 [Example 223, N-(2-methyl-5-((2-(pyrrolidin-1-yl)ethyl)carbamoyl)pyridin-3-yl)-2-(1,3,5-trimethyl-1H-pyrazol-4-yl)pyrazolo[5,1-b]thiazole-7-carboxamide] | 0.6
14 | Cc1ncc(NC(=O)CN2CCC(F)(F)CC2)cc1NC(=O)c1cnn2cc(-c3cnn(C)c3)sc12 [Example 14, N-(5-(2-(4,4-difluoropiperidin-1-yl)acetamido)-2-methylpyridin-3-yl)-2-(1-methyl-1H-pyrazol-4-yl)pyrazolo[5,1-b]thiazole-7-carboxamide] | 0.4
15 | Cc1ncc(NC(=O)OC[C@@H]2CCCN2C(C)C)cc1NC(=O)c1cnn2cc(-c3cnn(C)c3)sc12 [Example 245, (S)-(1-isopropylpyrrolidin-2-yl)methyl (6-methyl-5-(2-(1-methyl-1H-pyrazol-4-yl)pyrazolo[5,1-b]thiazole-7-carboxamido)pyridin-3-yl)carbamate] | 0.4
16 | Cc1cc(C(=O)NCCN2CC3CCC2CC3)sc1NC(=O)c1cnn2cc(-c3cnn(C)c3)sc12 [Example 199, N-(5-((2-(2-azabicyclo[2.2.2]octan-2-yl)ethyl)carbamoyl)-3-methylthiophen-2-yl)-2-(1-methyl-1H-pyrazol-4-yl)pyrazolo[5,1-b]thiazole-7-carboxamide] | 2
17 | Cc1ncc(NC(=O)OCC(C)N2CCCC2)cc1NC(=O)c1cnn2cc(-c3cnn(C)c3)sc12 (stereo not shown) [Example 248, 2-(pyrrolidin-1-yl)propyl (6-methyl-5-(2-(1-methyl-1H-pyrazol-4-yl)pyrazolo[5,1-b]thiazole-7-carboxamido)pyridin-3-yl)carbamate] | 0.4
18 | Cc1cc(C(=O)NCCN2CCCC2(C)C)sc1NC(=O)c1cnn2cc(-c3ccc(N)nc3)sc12 [Example 184, 2-(6-aminopyridin-3-yl)-N-(5-((2-(2,2-dimethylpyrrolidin-1-yl)ethyl)carbamoyl)-3-methylthiophen-2-yl)pyrazolo[5,1-b]thiazole-7-carboxamide] | 15.9
19 | Cc1ncc(C(=O)NCCN2CCCC2)cc1NC(=O)c1cnn2cc(-c3cn(C)nc3C)sc12 [Example 218, 2-(1,3-Dimethyl-1H-pyrazol-4-yl)-N-(2-methyl-5-((2-(pyrrolidin-1-yl)ethyl)carbamoyl)pyridin-3-yl)pyrazolo[5,1-b]thiazole-7-carboxamide] | 0.3
20 | Cc1ncc(C(=O)NCCN2CCCC2(C)C)cc1NC(=O)c1cnn2cc(-c3cccc4c3cnn4C)sc12 [Example 240, N-(5-((2-(2,2-dimethylpyrrolidin-1-yl)ethyl)carbamoyl)-2-methylpyridin-3-yl)-2-(1-methyl-1H-indazol-4-yl)pyrazolo[5,1-b]thiazole-7-carboxamide] | 0.3
21 | Cc1ncc(NC(=O)CCN2CCCC2(C)C)cc1NC(=O)c1cnn2cc(-c3ccn(C)n3)sc12 [Example 12, N-(5-(3-(2,2-dimethylpyrrolidin-1-yl)propanamido)-2-methyl-pyridin-3-yl)-2-(1-methyl-1H-pyrazol-3-yl)pyrazolo[5,1-b]thiazole-7-carboxamide] | 0.3
22 | Cc1ncc(C(=O)NCCN2CC3CCC2C3)cc1NC(=O)c1cnn2cc(-c3cnn(C)c3C)sc12 (stereo not shown) [Example 210, N-(5-((2-(2-azabicyclo[2.2.1]heptan-2-yl)ethyl)carbamoyl)-2-methylpyridin-3-yl)-2-(1,5-dimethyl-1H-pyrazol-4-yl)pyrazolo[5,1-b]thiazole-7-carboxamide] | 0.3
23 | Cc1ncc(NC(=O)OCC(C)(C)N2CCCC2)cc1NC(=O)c1cnn2cc(-c3cnn(C)c3)sc12 [Example 249, 2-methyl-2-(pyrrolidin-1-yl)propyl (6-methyl-5-(2-(1-methyl-1H-pyrazol-4-yl)pyrazolo[5,1-b]thiazole-7-carboxamido)pyridin-3-yl)carbamate] | 0.5
24 | Cc1ncc(NC(=O)OC[C@H]2CCCN2C)cc1NC(=O)c1cnn2cc(-c3cnn(C)c3)sc12 [Example 244, (R)-(1-methylpyrrolidin-2-yl)methyl (6-methyl-5-(2-(1-methyl-1H-pyrazol-4-yl)pyrazolo[5,1-b]thiazole-7-carboxamido)pyridin-3-yl)carbamate] | 0.5
25 | Cc1ncc(NC(=O)CN2CCCC23CC3)cc1NC(=O)c1cnn2cc(-c3cnn(C)c3)sc12 [Example 16, N-(5-(2-(4-azaspiro[2.4]heptan-4-yl)acetamido)-2-methylpyridin-3-yl)-2-(1-methyl-1H-pyrazol-4-yl)pyrazolo[5,1-b]thiazole-7-carboxamide] | 0.5
26 | COc1ncccc1-c1cn2ncc(C(=O)Nc3cc(NC(=O)CN4CCCC4(C)C)cnc3C)c2s1 [Example 233, N-(5-(2-(2,2-dimethylpyrrolidin-1-yl)acetamido)-2-methylpyridin-3-yl)-2-(2-methoxypyridin-3-yl)pyrazolo[5,1-b]thiazole-7-carboxamide] | 0.2
27 | Cc1ncc(C(=O)NC[C@H]2CCCN2CCO)cc1NC(=O)c1cnn2cc(-c3cnn(C)c3)sc12 [Example 236, (R)—N-(5-(((1-(2-hydroxyethyl)pyrrolidin-2-yl)methyl)carbamoyl)-2-methylpyridin-3-yl)-2-(1-methyl-1H-pyrazol-4-yl)pyrazolo[5,1-b]thiazole-7-carboxamide] | 2.1
28 | Cc1cc(C(=O)NCCN2CCC(C)(C)CC2)sc1NC(=O)c1cnn2cc(-c3cnn(C)c3)sc12 [Example 183, N-(5-((2-(4,4-dimethylpiperidin-1-yl)ethyl)carbamoyl)-3-methylthiophen-2-yl)-2-(1-methyl-1H-pyrazol-4-yl)pyrazolo[5,1-b]thiazole-7-carboxamide] | 11.1
